Test results published in patent US20060089824A1, “Methods and systems for drug screening and computational modeling” (priority 2002, published 2006).

Target: D1 receptor (Homo sapiens, UniProt P21728)
Assay: Calculated fraction of D1 receptors occupied from Ki and free drug concentration
Details: at a therapeutic olanzapine level
Text: In particular, affinities of many drugs for receptors are well known. For example, Goodman and Gilmans “The Pharmacological Basis of Therapeutics,” Tenth Edition. […] [formula]

Chain of D1 receptor (P21728 whole entry): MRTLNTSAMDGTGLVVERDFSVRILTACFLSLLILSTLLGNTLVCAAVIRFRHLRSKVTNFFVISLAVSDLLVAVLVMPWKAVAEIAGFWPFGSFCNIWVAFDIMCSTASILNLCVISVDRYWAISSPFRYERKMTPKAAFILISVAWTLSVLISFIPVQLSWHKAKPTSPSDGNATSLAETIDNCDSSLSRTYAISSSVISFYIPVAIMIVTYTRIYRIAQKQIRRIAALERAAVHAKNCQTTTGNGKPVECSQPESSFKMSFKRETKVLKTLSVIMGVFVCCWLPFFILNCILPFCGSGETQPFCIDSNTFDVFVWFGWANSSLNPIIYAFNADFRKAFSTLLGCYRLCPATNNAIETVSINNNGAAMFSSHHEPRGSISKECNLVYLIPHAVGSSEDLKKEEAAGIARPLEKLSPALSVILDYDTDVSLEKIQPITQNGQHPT

With `Cc1cc2c(s1)Nc1ccccc1N=C2N1CCN(C)CC1` [olanzapine] the “D1 receptors blocked (antagonized)” value was “approximately 47%”.
